Data as given in US4876242A, “Human insulin-like growth factor analoges with reduced binding to serum carrier proteins and their production in yeast” (Merck & Co., Inc., priority 1987, dated 1989).
Entries after “also recorded” stand apart in the source; their conditions may differ.

Legend:
type I IGF receptor = experiment: Inhibition of 125I-hIGF-I binding to human placental membranes (type I IGF receptor binding); details: FIG. 6; for IC50: human placental membranes, type I IGF receptor
[1] = molecular target: human serum carrier proteins; experiment: Inhibition of 125I-hIGF-I binding to acid stable human serum carrier proteins; details: FIG. 7; for IC50: acid stable human carrier proteins
3T3 cells = experiment: Stimulation of DNA synthesis in 3T3 cells; assay type: cell-based, mouse; details: FIG. 9; for potency in stimulating DNA synthesis relative to normal/wild-type IGF-I: 3T3 cells; for potency in stimulating DNA synthesis relative to wild type IGF-I: mouse 3T3 cells
Excerpt: IGF-I stimulates DNA synthesis in mouse 3T3 cells.

rat adipose tissue = experiment: Incorporation of 14C-glucose into lipid in rat adipose tissue in vivo; details: FIG. 10 part B
serum carrier proteins = details: cited from earlier work
[2] = system: native binding protein in rat serum; experiment: Binding of 125I-labelled peptide to components in normal rat serum (gel chromatography); details: for binding to rat serum carrier proteins / native binding protein in rat serum (in words): normal rat serum, FIG. 8
Procedure: ^125 I-labelled analog IGF132 was monitored for the ability to bind components in normal rat serum. When ^125 I-IGF or ^125 I-IGF132 is chromatographed without prior incubation with serum, the radioactivity is eluted in a broad peak which migrates at the position expected for a 7.5 kD peptide (FIG. 8A). After incubation of ^125 I-IGF with rat serum, a radioactive peak appears which elutes at the position expected for a 150 kD protein, and the amount of radioactivity in the free ^125 I-αIGF peak decreases (FIG. 8B). The ^125 I-αIGF bound to the 150 kD species represents 36%±5% of the total ^125 I-IGF-I in the incubation. When the incubation is performed in the presence of 1 μg unlabelled IGF, only one radioactive peak is observed and this corresponds to unbound ^125 I-IGF (FIG. 8B (0)). Thus, under the conditions of this assay, the binding of ^125 I-IGF to the 150 kD species from rat serum is saturable.

GPQALCGAELVDALQF-R1 [IGF130]
IC50 (type I IGF receptor): 5.3 nM | IC50 [1]: 1.8 nM

GPQALCGAELVDALYL-R1 [IGF252]
IC50 (type I IGF receptor): 5 nM | binding to human serum carrier proteins (in words) [1]: very weakly bound | IC50 [1]: 300 nM | potency in stimulating DNA synthesis relative to normal/wild-type IGF-I (3T3 cells): 10 times | potency in stimulating DNA synthesis relative to wild type IGF-I (3T3 cells): about 10 fold | stimulation of lipid synthesis in adipose tissue in vivo (in words) (rat adipose tissue): Neither IGF-I nor IGF252 stimulate lipid synthesis; also recorded: neither IGF-I nor IGF252 stimulates the incorporation

insulin: insulin; stated not to bind to serum carrier proteins
binding to serum carrier proteins (in words, background observation) (serum carrier proteins): does not bind to serum carrier proteins

GPETLCGAELVDALQF-R1 [hIGF-I, reference compound]
IC50 (type I IGF receptor): 5.6 nM | binding to human serum carrier proteins (in words) [1]: tightly bound | IC50 [1]: 0.42 nM | 125I-peptide bound to the 150 kD species, share of the total in the incubation ([2]; after incubation with rat serum, FIG. 8B): 36%±5% | binding to rat serum carrier proteins / native binding protein in rat serum (in words) [2]: binds in a saturable fashion | binding to rat serum carrier proteins / native binding protein in rat serum (in words) ([2]; listed as IGF): saturable | stimulation of lipid synthesis in adipose tissue in vivo (in words) (rat adipose tissue): Neither IGF-I nor IGF252 stimulate lipid synthesis; also recorded: neither IGF-I nor IGF252 stimulates the incorporation | share bound to serum carrier proteins in normal human blood (serum carrier proteins; normal human blood): greater than 99%

GPETLCGAELVDALYL-R1 [IGF122]
IC50 (type I IGF receptor): 4.5 nM | IC50 [1]: 2.1 nM

FVNQHLCGSHLVEALYL-R1 [IGF132]
affinity/potency at the type I IGF receptor compared to normal human IGF-I (in words) (type I IGF receptor): near equal affinity | IC50 (type I IGF receptor): 12 nM | binding to human serum carrier proteins (in words) [1]: greatly reduced binding; also recorded: very weakly bound | IC50 [1]: > 1000 nM | binding to rat serum carrier proteins / native binding protein in rat serum (in words) [2]: greatly reduced binding; also recorded: is not observed; also recorded: only free radioactive peptide is eluted | potency in stimulating DNA synthesis relative to normal/wild-type IGF-I (3T3 cells): 10 times | potency in stimulating DNA synthesis relative to wild type IGF-I (3T3 cells): about 10 fold
